Assay results as given in paper PMC9494960, “Antiamoebic Activity of Imidazothiazole Derivatives against Opportunistic Pathogen Acanthamoeba castellanii” (Antibiotics, 2022).

How the values were obtained:
[1] = tested on: A. castellanii genotype T4 (ATCC 50492) trophozoites; assay: Amoebicidal assay (Trypan blue exclusion, haemocytometer counting); type: cell-based, Acanthamoeba castellanii; details: for Amoebicidal Activity Inhibition % ± SEM: 50 µM concentration, Supplementary Table S1; for amoebicidal effects / antiamoebic activity against A. castellanii: 50 µM, 24 h, 30 °C; for IC50: tested at 12.5, 25, 50 and 100 µM against A. castellanii
Procedure: A. castellanii genotype T4 (ATCC 50492) trophozoites were used in this study. The amoebae were axenically cultivated at 30 °C in T-75 cm^3 culture flask using a proteose-peptone yeast extract-glucose (PYG) broth culture. Upon confluency, amoeba cultured flask was placed on ice for 10 min followed by gently tapping to dislodge the adhered trophozoites. Next, culture was centrifuged at 3000× g for 5 min. The supernatant was discarded and the pellet was re-suspended in 1 mL of Roswell Park Memorial Institute (RPMI) media. Finally, amoebae were counted via haemocytometer microscopically and the desired initial inoculum (5 × 10^5) was adjusted and used in different assays. Different molecules were tested against A. castellanii to examine their antiamoebic effects as previously reported. Briefly, A. castellanii (5 × 10^5) were incubated with 50 µM of the tested compounds for 24 h at 30 °C with a final assays volume of 0.5 mL in a 24-well plate. For controls, amoebae cultured in RPMI alone and with 0.25% sodium dodecyl sulfate (SDS) was taken as negative and positive control, respectively. Finally, each well was stained with Trypan blue (0.1%) and viable amoebae trophozoites were enumerated by haemocytometer. In some trails, these compounds were tested at different concentrations (12.5, 25, 50 and 100 µM) to determine their 50% inhibitory concentration (IC50) against A. castellanii.

HeLa cells = assay: In vitro cytotoxicity, lactate dehydrogenase (LDH) assay; type: cell-based, human; details: 50 µM, 24 h, LDH release
Procedure: HeLa cells were obtained from the American Type Culture Collection (ATCC CCL-2) and grown at 37 °C with 5% CO2 and 95% humidity in RPMI supplemented with 10% fetal bovine serum (FBS), 1% minimum essential medium amino acids, 1% Penicillin-Streptomycin (Pen-Strep) and 1% L-glutamine. The media was removed aseptically, and cells were detached enzymatically using 2 mL of trypsin EDTA. Next, culture containing dislodged cells was centrifuged at 2500× g for 5 min. The cell pellet was resuspended in the above-mentioned media, subsequently added into 96-well plates and utilized in different assays. In vitro cytotoxic effects of the tested molecules were determined using Lactate dehydrogenase (LDH) assays against human cells. In brief, 50 µM concentration of the tested compounds were incubated with HeLa cells monolayer for 24 h at 37 °C with 5% CO2 in humidified conditions. After this incubation, 0.1% triton X-100 was added to the positive control wells and incubated the plate for 45 min at 37 °C. Then, an equal volume of cells supernatant containing liberated LDH enzyme was mixed with an equal volume of LDH kit reagents (Cytotoxicity Detection kit; Roche Diagnostics, Indianapolis, IN, USA). The positive and negative controls were cell monolayers treated with 0.1 percent Triton X-100 and in RPMI alone. The plate was subjected to multi-plate reader and absorbance was recorded at 490 nm. The percent cytotoxicity was calculated using given formula; % Cell cytotoxicity = sample value − negative control value/positive control value − negative control value × 100.

[2] = tested on: A. castellanii binding to HeLa cells; assay: Adhesion assay: amoebae binding to human cells; type: cell-based, Acanthamoeba castellanii; details: amoebae pre-treated with 50 µM for 2 h; 60 min on HeLa monolayer
Procedure: Adhesion assays were performed to determine how the tested molecules affect the binding capability of amoebae to human cells. Firstly, A. castellanii (5 ×10^5) trophozoites were treated with 50 µM of the compounds in serum-free RPMI medium at 30 °C for 2 h. Next, pre-treated amoebae were centrifuged at 3000× g for 5 min and re-suspended the amoeba in 200 µL of RPMI medium. The total assay volume including pre-treated amoeba was transferred to a confluent HeLa cell monolayer cultured in 96-well plates. For control, amoebae trophozoites alone were added to HeLa cell monolayer. The plates were incubated for 60 min at 37 °C with 5% CO2 and 95% humidity and amoebae (unbound) were then counted by haemocytometer. Percent bound amoebae was calculated using the following formula: % amoebae (bound) = 100 − amoebae (unbound)(1)

human cell lines = assay: MTT assay (EC50/CC50 and MNTD90); type: cell-based; details: for CC50: 50% effective/cytotoxic concentration (CC50), tested at 12.5–100 µM; for EC90: Maximum Non-Toxic Dose, read-out: MNTD/EC90
[3] = tested on: A. castellanii trophozoites; assay: Encystation assay; type: cell-based, Acanthamoeba castellanii; details: 50 µM, 16% glucose, 30 °C, 48–72 h; negative control 100%
Procedure: Encystation assays were performed to determine the effects of the tested compounds to prevent the differentiation of A. castellanii trophozoites into the cyst form and 50 µM of the tested compounds were utilized. Briefly, A. castellanii (1 × 10^6) trophozoites were incubated with these compounds with 16% filter-sterilized glucose (as encystation medium) at 30 °C 48–72 h. A. castellanii cultured alone in 16% glucose was taken as negative control. After this incubation, 0.1% sodium dodecyl sulfate (SDS) was added to each well and agitated the plate for 20 min. The SDS resistant cysts were enumerated using a haemocytometer and data was recoded.

SMILES | Amoebicidal Activity Inhibition % ± SEM [1] | IC50 [1] | also measured
COc1cccc(NC(=O)NCCNc2nccc(-c3c(-c4ccc(F)cc4)nc4sccn34)n2)c1 [Compound 1a] | 7.70% ± 3.57% | – | cytotoxicity against HeLa cells (HeLa cells): 35%
O=C(NCCNc1nccc(-c2c(-c3ccc(F)cc3)nc3sccn23)n1)Nc1cccc(C(F)(F)F)c1 [Compound 1b] | 12.86% ± 5.93% | – | –
O=C(NCCNc1nccc(-c2c(-c3ccc(F)cc3)nc3sccn23)n1)Nc1cc(C(F)(F)F)cc(C(F)(F)F)c1 [Compound 1c] | 17.28% ± 1.88% | – | –
Cc1ccc(C(=O)NCCNc2nccc(-c3c(-c4ccc(F)cc4)nc4sccn34)n2)cc1 [Compound 1d] | 39.50% ± 1.53% | – | –
COc1ccc(C(=O)NCCNc2nccc(-c3c(-c4ccc(F)cc4)nc4sccn34)n2)cc1OC [Compound 1e] | 44.50% ± 1.79% | – | inhibition of amoebae binding to human cells [2]: 40%
O=C(NCCNc1nccc(-c2c(-c3ccc(F)cc3)nc3sccn23)n1)c1ccc2c(c1)OCCO2 [Compound 1f] | 40.50% ± 4.84% | – | –
O=C(NCCNc1nccc(-c2c(-c3ccc(F)cc3)nc3sccn23)n1)c1ccccc1O [Compound 1g] | 42.20% ± 3.29% | – | –
O=C(NCCNc1nccc(-c2c(-c3ccc(F)cc3)nc3sccn23)n1)c1cccc(C(F)(F)F)c1 [Compound 1h] | 38.16% ± 3.74% | – | –
Cc1cn(-c2cc(C(=O)NCCNc3nccc(-c4c(-c5ccc(F)cc5)nc5sccn45)n3)cc(C(F)(F)F)c2)cn1 [Compound 1j] | 42.34% ± 3.81% | – | –
O=C(NCCNc1nccc(-c2c(-c3ccc(F)cc3)nc3sccn23)n1)c1cc(N2CCOCC2)cc(C(F)(F)F)c1 [Compound 1k] | 16.58% ± 6.08% | – | amoebicidal effects / antiamoebic activity against A. castellanii [1]: did not show promising antiamoebic activity
CC(C)(C)OC(=O)N1CCN(CCNc2nccc(-c3c(-c4ccc(F)cc4)nc4sccn34)n2)S1(=O)=O [Compound 1l] | 47.41% ± 1.67% | 59.9 µM | inhibition of amoebae binding to human cells [2]: 42%
COc1cccc(-c2nc3sccn3c2-c2ccnc(NCCNC(=O)Nc3cc(C(F)(F)F)cc(C(F)(F)F)c3)n2)c1 [Compound 1n] | 51.05% ± 2.36% | 47.5 µM | CC50 (human cell lines): 648 µM; EC90 (human cell lines): 16.4 µM
COc1cccc(-c2nc3sccn3c2-c2ccnc(NCCNC(=O)c3ccccc3)n2)c1 [Compound 1o] | 11.78% ± 11.34% | – | amoebicidal effects / antiamoebic activity against A. castellanii [1]: did not show promising antiamoebic activity
COc1cccc(-c2nc3sccn3c2-c2ccnc(NCCNC(=O)c3ccccc3O)n2)c1 [Compound 1p] | 36.42% ± 5.43% | – | –
COc1cccc(-c2nc3sccn3c2-c2ccnc(NCCNC(=O)c3cccc(C(F)(F)F)c3)n2)c1 [Compound 1q] | 52.41% ± 5.31% | 47.7 µM | cytotoxicity against HeLa cells (HeLa cells): 38%; CC50 (human cell lines): 584 µM; EC90 (human cell lines): 30.6 µM
COc1cccc(-c2nc3sccn3c2-c2ccnc(NCCNC(=O)c3cc(C(F)(F)F)cc(C(F)(F)F)c3)n2)c1 [Compound 1r] | 44.91% ± 8.42% | 64.7 µM | CC50 (human cell lines): 183 µM; EC90 (human cell lines): 33.9 µM
COc1cccc(-c2nc3sccn3c2-c2ccnc(NCCNC(=O)c3ccc(N4CCOCC4)c(C(F)(F)F)c3)n2)c1 [Compound 1s] | 39.10% ± 2.31% | – | –
COc1cccc(-c2nc3sccn3c2-c2ccnc(NCCNC(=O)c3cc(N4CCOCC4)cc(C(F)(F)F)c3)n2)c1 [Compound 1t] | 17.46% ± 3.75% | – | amoebicidal effects / antiamoebic activity against A. castellanii [1]: did not show promising antiamoebic activity
O=C(NCCNc1nccc(-c2c(-c3cccc(O)c3)nc3sccn23)n1)Nc1ccccc1 [Compound 1u] | 12.66% ± 5.04% | – | amoebicidal effects / antiamoebic activity against A. castellanii [1]: did not show promising antiamoebic activity
O=C(NCCNc1nccc(-c2c(-c3cccc(O)c3)nc3sccn23)n1)Nc1cccc(C(F)(F)F)c1 [Compound 1v] | 44.86% ± 2.98% | 60 µM | CC50 (human cell lines): 222 µM; EC90 (human cell lines): 5.36 µM
O=C(NCCNc1nccc(-c2c(-c3cccc(O)c3)nc3sccn23)n1)Nc1cc(C(F)(F)F)cc(C(F)(F)F)c1 [Compound 1w] | 50.25% ± 4.67% | 46.3 µM | CC50 (human cell lines): 304 µM; EC90 (human cell lines): 36.1 µM
O=C(NCCNc1nccc(-c2c(-c3cccc(O)c3)nc3sccn23)n1)c1ccccc1 [Compound 1x] | 48.02% ± 3.69% | 54 µM | EC90 (human cell lines): 102 µM
O=C(NCCNc1nccc(-c2c(-c3cccc(O)c3)nc3sccn23)n1)c1ccccc1O [Compound 1y] | 12.50% ± 4.68% | – | amoebicidal effects / antiamoebic activity against A. castellanii [1]: did not show promising antiamoebic activity
O=C(NCCNc1nccc(-c2c(-c3cccc(O)c3)nc3sccn23)n1)c1cccc(C(F)(F)F)c1 [Compound 1z] | 52.53% ± 1.67% | 44.8 µM | inhibition of amoebae binding to human cells [2]: 42%; encystation blocked (trophozoites prevented from converting into cysts) [3]: 60%; CC50 (human cell lines): 412 µM; EC90 (human cell lines): 80.9 µM
O=C(NCCNc1nccc(-c2c(-c3cccc(O)c3)nc3sccn23)n1)c1cc(C(F)(F)F)cc(C(F)(F)F)c1 [Compound 1za] | 15.71% ± 6.61% | – | amoebicidal effects / antiamoebic activity against A. castellanii [1]: did not show promising antiamoebic activity
O=C(NCCNc1nccc(-c2c(-c3cccc(O)c3)nc3sccn23)n1)c1cc(N2CCOCC2)cc(C(F)(F)F)c1 [Compound 1zc] | 14.79% ± 3.19% | – | amoebicidal effects / antiamoebic activity against A. castellanii [1]: did not show promising antiamoebic activity
CN1CCN(CCNc2nccc(-c3c(-c4cccc(O)c4)nc4sccn34)n2)S1(=O)=O [Compound 1zd] | 58.00% ± 3.41% | 41 µM | amoebicidal effects / antiamoebic activity against A. castellanii [1]: 58%; inhibition of amoebae binding to human cells [2]: 42%; encystation blocked (trophozoites prevented from converting into cysts) [3]: 62%; cytotoxicity against HeLa cells (HeLa cells): 37%; EC90 (human cell lines): 145 µM
